Source: ChEMBL document CHEMBL5370666, “Covalent Peptide LSD1 Inhibitor Specifically Recognizes Cys360 in the Enzyme-Active Region” (J Med Chem, 2023)
Blank lines part the entries; values can stand above or below the compound they belong to. The source made the active and inactive calls. No cut-off for these calls is given here. *1 amine or outer side, *2 acyl side, *3 side chain or, on linkers, in order; H or OH if unused. Where a SMILES comes first, the peptide text is derived from it. Bridges are numbered along the chain shown (N, C = ends). [ ]: non-standard residue; d: D form. The star is where a group is joined. Met(S-mXyl) = C[S+](CC[C@H](N[*:1])C(=O)[*:2])Cc1cccc(C[*:3])c1; Biotin = O=C1N[C@H]2[C@H](CS[C@H]2CCCCC(=O)*)N1

How the values were obtained:
[1] = biological target: Lysine-specific histone demethylase 1A (Homo sapiens) (UniProt O60341); assay: Covalent binding affinity to full-length human LSD1 transfected in HEK293T cell lysate at 40 uM incubated overnight by biotin-pull down assay; type: subcellular
[2] = biological target: Apoptosis regulator Bcl-2 (Homo sapiens) (UniProt P10415); assay: Binding affinity to BCL2 (unknown origin) at 50 uM incubated for 12 hrs by SDS-PAGE analysis
A549 [3] = conditions: Homo sapiens, dose 20.0 mg/kg, route sc, time 28.0 day
[4] = biological target: T1, Phospholipid hydroperoxide glutathione peroxidase GPX4 (Homo sapiens) (UniProt P36969); assay: Binding affinity to GPX4 (unknown origin) at 50 uM incubated for 12 hrs by SDS-PAGE analysis
T1 sequence (whole entry): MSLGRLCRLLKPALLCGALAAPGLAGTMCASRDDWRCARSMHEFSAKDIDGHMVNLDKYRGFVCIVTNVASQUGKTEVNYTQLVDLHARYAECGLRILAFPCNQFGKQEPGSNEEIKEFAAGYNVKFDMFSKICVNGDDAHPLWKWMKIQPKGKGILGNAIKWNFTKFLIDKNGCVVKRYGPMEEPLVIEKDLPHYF

T47D [5] = assay: Induction of apoptosis in human T47D cells assessed as late apoptotic cells incubated for 24 hrs by Annexin V-FITC/PI staining based flow cytometry (reference value: 0.898 %); type: functional
T47D [6] = assay: Induction of apoptosis in human T47D cells assessed as necrotic cells incubated for 24 hrs by Annexin V-FITC/PI staining based flow cytometry (reference value: 0.243 %); type: functional
A549 [7] = assay: Induction of cell cycle arrest in human A549 cells assessed as cell accumulation at G1 phase at 50 uM incubated for 24 hrs by RNase/PI staining based flow cytometry (reference value: 49.19 %); type: functional
A549 [8] = assay: Cytotoxicity against human A549 cells assessed as cell viability at 100 uM incubated for 24 hrs by MTT assay relative to control; conditions: A549, 24 h, read-out: Activity
T47D [9] = assay: Cytotoxicity against human T47D cells assessed as cell viability at 100 uM incubated for 24 hrs by MTT assay relative to control; conditions: read-out: Activity
T47D [10] = assay: Induction of apoptosis in human T47D cells assessed as early apoptotic cells incubated for 24 hrs by Annexin V-FITC/PI staining based flow cytometry (reference value: 0.274 %); type: functional
A549 [11] = assay: In vivo inhibition of LSD1 in human A549 cells xenografted in athymic nude BALB/c ASlac-nu mouse at 20 mg/kg, sc everyday for 28 days by IHC analysis; type: functional, organism-based; conditions: time 28.0 day
A549 [12] = assay: Induction of cell cycle arrest in human A549 cells assessed as cell accumulation at G2 phase at 50 uM incubated for 24 hrs by RNase/PI staining based flow cytometry (reference value: 9.81 %); type: functional
A549 [13] = assay: Induction of cell cycle arrest in human A549 cells assessed as cell accumulation at S phase at 50 uM incubated for 24 hrs by RNase/PI staining based flow cytometry (reference value: 39.60 %); type: functional
T47D [14] = assay: Induction of apoptosis in human T47D cells assessed as viable cells incubated for 24 hrs by Annexin V-FITC/PI staining based flow cytometry (reference value: 98.6 %); type: functional
[15] = biological target: T2, Amine oxidase [flavin-containing] A (Homo sapiens, UniProt P21397); assay: Inhibition of MAO-A (unknown origin) incubated for 10 mins by fluorescence based assay
T2 sequence (P21397 whole entry): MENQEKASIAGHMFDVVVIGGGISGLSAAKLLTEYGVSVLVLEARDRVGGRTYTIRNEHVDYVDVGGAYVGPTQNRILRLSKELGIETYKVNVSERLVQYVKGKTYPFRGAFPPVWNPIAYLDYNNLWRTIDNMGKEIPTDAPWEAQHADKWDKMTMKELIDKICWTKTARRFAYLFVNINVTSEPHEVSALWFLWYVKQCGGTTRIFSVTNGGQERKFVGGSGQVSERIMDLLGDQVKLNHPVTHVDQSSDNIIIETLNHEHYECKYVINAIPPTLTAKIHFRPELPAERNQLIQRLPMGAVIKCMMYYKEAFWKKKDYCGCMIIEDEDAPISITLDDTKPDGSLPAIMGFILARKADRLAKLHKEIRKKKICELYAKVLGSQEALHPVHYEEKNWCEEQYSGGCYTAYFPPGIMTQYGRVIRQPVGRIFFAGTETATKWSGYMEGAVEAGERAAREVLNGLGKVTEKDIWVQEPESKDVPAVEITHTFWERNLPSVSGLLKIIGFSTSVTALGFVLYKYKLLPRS

[16] = Toxicity in athymic nude BALB/c ASlac-nu mouse xenografted with human A549 cells assessed as body weight loss at 20 mg/kg, sc everyday for 28 days; type: organism-based; conditions: in vivo, 672 h, time 28 day

Chain of Apoptosis regulator Bcl-2 (Homo sapiens) (P10415 whole entry): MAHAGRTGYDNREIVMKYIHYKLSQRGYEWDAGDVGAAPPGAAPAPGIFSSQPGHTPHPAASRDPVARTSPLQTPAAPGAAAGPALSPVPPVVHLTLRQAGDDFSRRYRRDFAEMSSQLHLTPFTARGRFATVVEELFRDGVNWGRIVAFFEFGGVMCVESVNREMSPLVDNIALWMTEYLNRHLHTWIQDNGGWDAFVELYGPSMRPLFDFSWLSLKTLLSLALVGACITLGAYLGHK

Compound: O=C(O)c1ccc(CN2CCC(CN[C@@H]3C[C@H]3c3ccccc3)CC2)cc1 [GSK2879552]
Activity (T47D [5]): 1.74%
Activity (T47D [6]): 0.743%
Activity (A549 [7]): 53.15%
Activity (T47D [10]): 1.62%
inhibition (A549 [11]): Active
Activity (A549 [12]): 9.92%
Activity (A549 [13]): 36.7%
Activity (T47D [14]): 95.9%
Activity [16]: Non-Toxic

Compound: Ac-PRSFLVRKPRRRRW-NH2
Activity (T47D [5]): 2.19%
Activity (T47D [6]): 0.088%
Activity (A549 [7]): 57.34%
Activity (T47D [10]): 1.49%
inhibition (A549 [11]): Active
Activity (A549 [12]): 7.96%
Activity (A549 [13]): 34.2%
Activity (T47D [14]): 96.3%
Activity [16]: Non-Toxic

Now from value to compound, other results behind:

Activity [1]: Active
Compound: CC(=O)N1CCC[C@H]1C(=O)N[C@@H](CCCNC(=N)N)C(=O)N[C@H]1CSCc2cccc(c2)C[S+](C)CC[C@@H](C(=O)N[C@@H](CCCCNC(=O)CCCC[C@@H]2SC[C@@H]3NC(=O)N[C@@H]32)C(=O)N2CCC[C@H]2C(=O)N[C@@H](Cc2c[nH]c3ccccc23)C(N)=O)NC(=O)[C@H](C(C)C)NC(=O)[C@H](CC(C)C)NC(=O)[C@H](Cc2ccccc2)NC1=O (stereo not given in full) (Ac-PRCFLV[Met(S-mXyl)]K(Biotin)PW-NH2; thioether 3-7)

Activity [2]: inactive
Activity [4]: inactive
inhibition (INH) [15]: Not Active
Compound: CC(=O)N1CCC[C@H]1C(=O)N[C@@H](CCCNC(=N)N)C(=O)N[C@H]1CSCc2cccc(c2)C[S+](C)CC[C@@H](C(=O)N[C@@H](CCCCN)C(=O)N2CCC[C@H]2C(=O)N[C@@H](CCCNC(=N)N)C(=O)N[C@@H](CCCNC(=N)N)C(=O)N[C@@H](CCCNC(=N)N)C(=O)N[C@@H](CCCNC(=N)N)C(=O)N[C@@H](Cc2c[nH]c3ccccc23)C(N)=O)NC(=O)[C@H](C(C)C)NC(=O)[C@H](CC(C)C)NC(=O)[C@H](Cc2ccccc2)NC1=O (stereo not given in full) (Ac-PRCFLV[Met(S-mXyl)]KPRRRRW-NH2; thioether 3-7)
inhibition (A549 [3]): Active
Activity (T47D [5]): 46.7%
Activity (T47D [6]): 51.2%
Activity (A549 [7]): 60.61%
viability at 100 µM (A549 [8]): ~19.9%
viability at 100 µM (T47D [9]): ~7.4%
Activity (T47D [10]): 0%
inhibition (A549 [11]): Active
Activity (A549 [12]): 12%
Activity (A549 [13]): 27.23%
Activity (T47D [14]): 2.14%
Activity [16]: Non-Toxic

inhibition (INH) [15]: Active
Compound: C#CCN(C)CCCOc1ccc(Cl)cc1Cl [CLORGILINE]
